Patent publication US9815841B2, “Compounds” (GLAXOSMITHKLINE INTELLECTUAL PROPERTY DEVELOPMENT LIMITED, priority 2014, dated 2017)

Biological target: T1, purified recombinant 6HIS-Tev-LRRK2 (1326-2527) (Homo sapiens, UniProt Q5S007)
T1 construct: A LRRK2 cDNA encoding residues 1326-2527 was received from Dundee University; made in house; host or cells: Spodoptera frugiperda (Sf9) insect cells, baculovirus (pFB-HTb)
T1 sequence (Q5S007 1326-2527): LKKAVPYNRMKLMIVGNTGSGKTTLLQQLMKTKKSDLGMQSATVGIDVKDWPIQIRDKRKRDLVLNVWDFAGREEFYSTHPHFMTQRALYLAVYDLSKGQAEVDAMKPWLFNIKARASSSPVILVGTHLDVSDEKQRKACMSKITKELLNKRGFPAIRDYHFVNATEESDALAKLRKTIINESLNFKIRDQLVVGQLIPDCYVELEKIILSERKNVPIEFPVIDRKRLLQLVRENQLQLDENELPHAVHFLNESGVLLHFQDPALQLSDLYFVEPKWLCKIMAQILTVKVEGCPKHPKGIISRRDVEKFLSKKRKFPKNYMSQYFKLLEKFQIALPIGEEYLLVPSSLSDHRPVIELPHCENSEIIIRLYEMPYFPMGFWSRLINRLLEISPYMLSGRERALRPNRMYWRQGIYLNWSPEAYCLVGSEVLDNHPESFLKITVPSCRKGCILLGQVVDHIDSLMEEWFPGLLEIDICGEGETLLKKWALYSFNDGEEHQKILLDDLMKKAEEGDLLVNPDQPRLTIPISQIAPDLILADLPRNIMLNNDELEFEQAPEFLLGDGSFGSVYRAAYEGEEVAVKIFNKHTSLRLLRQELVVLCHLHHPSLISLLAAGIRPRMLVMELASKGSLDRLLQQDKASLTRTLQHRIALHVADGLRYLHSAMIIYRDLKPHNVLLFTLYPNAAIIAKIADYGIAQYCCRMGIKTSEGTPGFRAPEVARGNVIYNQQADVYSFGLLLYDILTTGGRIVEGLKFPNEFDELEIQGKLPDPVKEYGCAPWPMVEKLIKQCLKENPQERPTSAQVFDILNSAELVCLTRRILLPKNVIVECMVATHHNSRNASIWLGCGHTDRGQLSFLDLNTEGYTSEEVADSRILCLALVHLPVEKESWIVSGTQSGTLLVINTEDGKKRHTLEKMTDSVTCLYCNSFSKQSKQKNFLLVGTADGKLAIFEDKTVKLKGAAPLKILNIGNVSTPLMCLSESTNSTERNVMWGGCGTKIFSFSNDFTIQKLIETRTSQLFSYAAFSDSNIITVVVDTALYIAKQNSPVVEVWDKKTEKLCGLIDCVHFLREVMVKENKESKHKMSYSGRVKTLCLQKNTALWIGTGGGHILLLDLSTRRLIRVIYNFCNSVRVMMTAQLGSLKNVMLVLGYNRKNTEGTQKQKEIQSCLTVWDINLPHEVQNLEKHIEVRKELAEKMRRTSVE
Assay: Recombinant LRRK2 enzyme peptide substrate TR-FRET assay
Format: biochemical
Conditions: 60 nM LRRK2 (1326-2527), 1 uM Biotin-longer LRRKtide, 10 uM ATP; read-out: recombinant LRRK2 enzyme peptide substrate TR-FRET assay (pIC50) (converted)
Method: This gene fragment was subcloned into pFB-HTb (Invitrogen) using BamHI and NotI restriction sites. The LRRK2 plasmid was recombined into the baculovirus genome according to the BAC-to-BAC protocol described by Invitrogen. Transfection into Spodoptera frugiperda (Sf9) insect cells was performed using Cellfectin (Invitrogen), according to the manufacturer's protocol to generate P1 and P2 baculovirus stocks.
Sf9 cells were grown in HyClone SFX (Thermo Scientific) growth media at 27° C., 80 rpm in shake flask until of a sufficient volume to inoculate a bioreactor. […] The cells were infected with P2 Baculovirus at a multiplicity of infection (MOI) of 3. The cultivation was continued for a 48 hour expression phase. The infected cells were removed from the growth media by centrifugation at 2500 g using a Sorvall RC 3C Plus centrifuge at 2500 g for 20 minutes. The cell pellet was immediately frozen and subsequently supplied for purification.
A 260 g pellet was allowed to thaw in a water bath at 27° C. with 800 ml lysis buffer/buffer A (50 mm Tris-HCl pH 8.5, 300 mM NaCl, 1 mm DTT, 10% glycerol, 1 ml/L calbiochem complete protease inhibitor cocktail and benzonase (50 ul/800 ml)) before being dounce homogenised on ice using 20 strokes per 100 ml. The suspension was packed in ice and sonicated at 50% amplitude for 3 min 10 sec on/off using a ¾″ probe. The suspension was then centrifuged at 100,000 g for 90 min, at 4° C.
The lysate (700 ml) was decanted from the insoluble pellet and contacted for 3 h at 4 C with 10 ml His bind Ni NTA resin by end over end mixing. The resin was recovered by centrifugation, 3000 g, 5 min at 4 C, and packed in an XK16 column. The column was then washed with 10 column volumes buffer A, 10 column volumes buffer B (buffer A+1M NaCl) and 10 column volumes buffer C (buffer A+20 mM imidazole). The column was then eluted with 15 column volumes buffer D (buffer A+300 mM imidazole) collecting 2 ml fractions. All washes and elution were conducted at 4 ml/min.
Fractions identified by SDS-PAGE as containing protein of interest were pooled and loaded directly onto a 320 ml SEC Superdex 200 pg column that was pre-equilibrated with buffer E (50 mM Tris-HCl pH 8.5, 300 mM NaCl, 10% glycerol, 1 mM DTT). The column was loaded and eluted with 1.2 column volumes buffer E at 2 ml/min collecting 2 ml fractions. Fractions identified by SDS-PAGE as containing protein of interest were tested for activity.
Production of Biotin-Longer LRRKtide
The resulting crude peptide was cleaved from the resin using a 95:2.5:2.5 mix of trifluoroacetic acid:triisopropylsilane:water.
Recombinant LRRK2 Enzyme Peptide Substrate TR-FRET Assay
Assay Protocol • 1. A 10 mM test compound was dissolved in 100% DMSO and serially diluted 1 in 4. 100 nL was then added to a 384 well low volume black plate, excluding columns 6 and 18. 100 nL of DMSO was added to columns 6 and 18 as controls wells. […] Test plates were then incubated for 30 minutes at room temperature. • 3. 3 uL ‘substate solution’ containing 2 uM Biotin-longer LRRKtide peptide substrate and 20 uM ATP was added to all wells of the plate using a multidrop combi dispenser giving a final assay concentration of 1 uM Biotin-longer LRRKtide and 10 uM ATP. Test plates were then incubated for 2 hours at room temperature. (Incubation may vary depending on rate and linearity of reaction with different enzyme batches). • 4. […] Data is analysed using ActivityBase software (IDBS). Dilutions and concentrations of reagents determined on a batch to batch basis

| IC50 [nM] | Compound |
| --- | --- |
| ≤ 10 | CCOc1nc(Nc2ccc(C(=O)N3CC4CC4(CO)C3)cc2OC)nc2[nH]ccc12 (single isomer, unassigned) [Example E46, (4-((4-ethoxy-7H-pyrrolo-[2,3-d]-pyrimidin-2-yl)amino)-3-methoxyphenyl)(1-(hydroxymethyl)-3-azabicyclo-[3.1.0]-hexan-3-yl)methanone] |
| ≤ 10 | CCOc1nc(Nc2ccc(C(=O)N3CCC4(CC3)CC4COC)cc2OC)nc2[nH]ccc12 (single isomer, unassigned) [Example E52, (4-((4-ethoxy-7H-pyrrolo-[2,3-d]-pyrimidin-2-yl)amino)-3-methoxyphenyl)(1-(methoxymethyl)-6-azaspiro-[2.5]-octan-6-yl)methanone] |
| ≤ 10 | CCOc1nc(Nc2ccc(C(=O)N3CC4CC4(COC)C3)cc2OC)nc2[nH]ccc12 (single isomer, unassigned) [Example E64, (4-((4-ethoxy-7H-pyrrolo-[2,3-d]pyrimidin-2-yl)amino)-3-methoxyphenyl)-(1-(methoxymethyl)-3-azabicyclo[3.1.0]hexan-3-yl)methanone] |
| ≤ 10 | CCOc1nc(Nc2ccc(C(=O)N3CCC(F)CC3)cc2OC)nc2[nH]ccc12 [Example E36, (4-((4-ethoxy-7H-pyrrolo-[2,3-d]pyrimidin-2-yl)amino)-3-methoxyphenyl)(4-fluoropiperidin-1-yl)methanone] |
| ≤ 10 | CCOc1nc(Nc2ccc(C(=O)N3CCN(C)[C@@H](C)C3)cc2OC)nc2[nH]ccc12 [Example E41, (S)-(3,4-dimethylpiperazin-1-yl)(4-((4-ethoxy-7H-pyrrolo-[2,3-d]-pyrimidin-2-yl)amino)-3-methoxyphenyl)methanone] |
| ≤ 10 | CCOc1nc(Nc2ccc(C(=O)N3CCC(COC)CC3)cc2OC)nc2[nH]ccc12 [Example E42, (4-((4-ethoxy-7H-pyrrolo-[2,3-d]-pyrimidin-2-yl)amino)-3-methoxyphenyl)(4-(methoxymethyl)piperidin-1-yl)methanone] |
| ≤ 10 | CCOc1nc(Nc2ccc(C(=O)N3CCCC4(COC4)C3)cc2OC)nc2[nH]ccc12 [Example E44, (4-((4-ethoxy-7H-pyrrolo-[2,3-d]pyrimidin-2-yl)amino)-3-methoxyphenyl)(2-oxa-6-azaspiro-[3.5]nonan-6-yl)methanone] |
| ≤ 10 | CCOc1nc(Nc2ccc(C(=O)N3[C@H](C#N)C[C@@H]4C[C@@H]43)cc2OC)nc2[nH]ccc12 [Example E66, (1 S,3S,5S)-2-(4-((4-ethoxy-7H-pyrrolo-[2,3-d]pyrimidin-2-yl)amino)-3-methoxybenzoyl)-2-azabicyclo-[3.1.0]-hexane-3-carbonitrile] |

Continued, molecule first:

| Compound | IC50 [nM] |
| --- | --- |
| CCOc1nc(Nc2cc(F)c(C(=O)N3CCN(C)CC3)cc2OC)nc2[nH]ccc12 [Example E5, (4-((4-ethoxy-7H-pyrrol-[2,3-d]pyrimidin-2-yl)amino)-2-fluoro-5-methoxyphenyl)(4-methylpiperazin-1-yl)-methanone] | ≤ 10 |
| CCOc1nc(Nc2ccc(C(=O)N3CCN(C)CC3)cc2OC(F)F)nc2[nH]ccc12 [Example E7, (3-(difluoromethoxy)-4-((4-ethoxy-7H-pyrrolo-[2,3-d]-pyrimidin-2-yl)amino)phenyl)(4-methylpiperazin-1-yl)-methanone] | ≤ 10 |
| CCOc1nc(Nc2ccc(C(=O)N3CCN(C)CC3)cc2OCC2CC2)nc2[nH]ccc12 [Example E8, (3-(cyclopropylmethoxy)-4-((4-ethoxy-7H-pyrrolo-[2,3-d]-pyrimidin-2-yl)amino)phenyl)(4-methylpiperazin-1-yl)-methanone] | ≤ 10 |
| CCOc1cc(C(=O)N2CCN(C)CC2)ccc1Nc1nc(OCC)c2cc[nH]c2n1 [Example E25, (3-ethoxy-4-((4-ethoxy-7H-pyrrolo-[2,3-d]pyrimidin-2-yl)amino)phenyl)(4-methylpiperazin-1-yl)methanone] | ≤ 10 |
| CCOc1nc(Nc2ccc(C(=O)N3CCN(C)[C@H](C)C3)cc2OC)nc2[nH]ccc12 [Example E29, (R)-(3,4-dimethylpiperazin-1-yl)-(4-((4-ethoxy-7H-pyrrolo-[2,3-d]-pyrimidin-2-yl)amino)-3-methoxyphenyl)methanone] | ≤ 10 |
| CCOc1nc(Nc2ccc(C(=O)N3CCC[C@@H]3COC)cc2OC)nc2[nH]ccc12 [Example E35, (R)-(4-((4-ethoxy-7H-pyrrolo-[2,3-d]pyrimidin-2-yl)amino)-3-methoxyphenyl)(2-(methoxymethyl)pyrrolidin-1-yl)methanone] | ≤ 10 |
